Assay [1] concerns the target recombinant human kappa opioid receptor (KOR) (Homo sapiens (Human), UniProt P41145). In kind it is binding.
Assay [2] has as its target recombinant human mu opioid receptor (MOR) (Homo sapiens (Human), UniProt P35372). The assay can be described thus: Opioid receptor radioligand binding assay, MOR ([3H]DAMGO). The note with it: membranes of HEK293 cells expressing recombinant human MOR; 0.5 nM [3H]DAMGO.

SMILES strings stand for the structures.

Usually IC50 stands for the point on the concentration scale where inhibition reaches its midpoint. In the case of `CC(C)C[C@@H](NC(=O)[C@@H](Cc1ccccc1)NC(=O)[C@H](N)[C@H](C)c1ccccc1)C(=O)N[C@H](CCCCN)C(=O)N1CCC(N)(C(=O)O)CC1` [Compound 18], in assay [1], the IC50 was determined as 0.000253 µM, the δ/k is above 39603 and the μ/k was found to be 38855. In addition, the IC50 in assay [2] came out at 9.81 µM.

Values taken from patent publication US11492374B2 (priority 2020, dated 2022).
